Test system: T1, LpUGT95
T1 construct: cloned from cDNA into pMAL-c2x (MBP fusion vector), expressed in E. coli, purified recombinant
Experiment: UPLC product formation, Hyper […] fit
Type: biochemical, Lysionotus pauciflorus
Details: 2 mM UDP-glucose as sugar donor, 10 mM DTT, 50 mM Tris-HCl pH 7.4, 30 °C, 30 min

Km: 596 µM
Structure (SMILES): COc1ccc(-c2cc(=O)c3c(O)c(OC)c(O)c(OC)c3o2)cc1 [nevadensin, 5,7-dihydroxy-6,8,4'-trimethoxyflavone]

Reference: article PMC9484059, “Integrated multi-omics analysis and microbial recombinant protein system reveal hydroxylation and glycosylation involving nevadensin biosynthesis in Lysionotus pauciflorus” (Microbial Cell Factories, 2022)
